# In patent US8163921B2, “Hepatitis C virus inhibitors” (Bristol-Myers Squibb Company, priority 2008, dated 2012):
# pEC50: −log10 of the molar value.
# Assays:
# [1] = system: HCV replicon in HUH-7 cells; test: HCV replicon FRET assay; format: cell-based, HCV strain 1b; conditions: Hepatitis C virus, Huh-7; read-out: EC50 value in the replicon FRET assay
# [2] = system: HCV replicon (Renilla luciferase) in HUH-7 cells; test: HCV replicon luciferase reporter assay; format: cell-based, HCV strain 1b
# Description: An HCV replicon whole cell system was established as described by Lohmann V, Korner F, Koch J, Herian U, Theilmann L, Bartenschlager R., Science 285(5424):110-3 (1999). This system enabled us to evaluate the effects of our HCV Protease compounds on HCV RNA replication. Briefly, using the HCV strain 1b sequence described in the Lohmann paper (Assession number:AJ238799), an HCV cDNA was synthesized by Operon Technologies, Inc. (Alameda, Calif.), and the full-length replicon was then assembled in plasmid pGem9zf(+) (Promega, Madison, Wis.) using standard molecular biology techniques. […]
# As a secondary assay, EC50 determinations from the replicon FRET assay were confirmed in a replicon luciferase reporter assay. […] Following 4 days in a 37° C./5% CO2 incubator, cells were analyzed for Renilla Luciferase activity using the Promega Dual-Glo Luciferase Assay System. […] Plates were read on a Packard TopCount NXT using a luminescence program. The percentage inhibition was calculated using the formula below: % control=average luciferase signal in experimental wells (+compound) average luciferase signal in DMSO control wells (−compound)
# The values were graphed and analyzed using XLfit to obtain the EC50 value.
compound,measurement,setting,value
C=C[C@@H]1C[C@]1(NC(=O)[C@@H]1C[C@@H](Oc2ncc(OC)c3ccc(Cl)cc23)CN1C(=O)[C@@H](Nc1nc(-c2cccc(OC(F)(F)F)c2)cs1)C(C)(C)C)C(=O)NS(=O)(=O)C1CC1 [Example 68],pEC50,[1],8.24
same,pEC50,[2],8.70
